In ChEMBL document CHEMBL1137545, “Antiproliferative activities of a library of hybrids between indanones and HDAC inhibitor SAHA and MS-275 analogues” (Bioorg Med Chem Lett, 2007):
Calls of active or inactive are those of the source. The calls are words filed in the database; no cut-off is given here.

System: not listed separately
Assay: Antiproliferative activity against H661 cells after 48 hrs
Format: functional, cell-based
Settings: Homo sapiens, NCI-H661, 48 h

Row | SMILES | IC50
1 | CC1(CCCCCCC(=O)NO)Cc2ccccc2C1=O (centres undefined) | 20 µM
2 | CC1(CCCCC(=O)NO)Cc2ccccc2C1=O (centres undefined) | > 25 µM
3 | CC(/C=C/C(=O)NO)=C\[C@@H](C)C(=O)c1ccc(N(C)C)cc1 [TRICHOSTATIN] | 0.085 µM

System: NCI-H661
Assay: Antiproliferative activity against H661 cells at 25 uM after 48 hrs
Format: functional, cell-based
Settings: Homo sapiens

Row | SMILES | Activity
4 | CC1(Cc2nc(C(=O)Nc3ccccc3N)cs2)Cc2ccccc2C1=O (centres undefined) | inactive
5 | CC1(Cc2nc(C(=O)NO)cs2)Cc2ccccc2C1=O (centres undefined) | inactive
6 | CN(C)c1ccc2c(c1)CC(C)(CCCCC(=O)NO)C2=O (centres undefined) | inactive
7 | CC1(Cc2cccc(C(=O)NO)c2)Cc2ccccc2C1=O (centres undefined) | inactive
8 | CC1(CCCCCC(=O)NO)Cc2ccccc2C1=O (centres undefined) | inactive
9 | CC1(Cc2cccc(C(=O)Nc3ccccc3N)c2)Cc2ccccc2C1=O (centres undefined) | inactive
